Data: ChEMBL document CHEMBL6134841, “3,5-Dihydroxybenzoic Acid as a Potent Inhibitor of Tyrosine Phenol-Lyase Decreases Fecal Phenol Levels in Mice” (J Med Chem, 2025)
Calls of active or inactive are those of the source. The rule behind the calls is not given here.

Columns and labels:
[1] = Competitive inhibition of bacterial TPL assessed as decrease in phenol production incubated for 3 mins in presence of PLP/L-Tyr by LC-MS analysis; design: species or system Bacteria
Morganella morganii [2] = assay: Inhibition of recombinant Morganella morganii JCM1672 TPL extracted from Escherichia coli BL21(DE3) assessed as decrease in phenol production incubated for 3 mins in presence of PLP/L-Tyr by LC-MS analysis
Citrobacter koseri [3] = assay: Inhibition of recombinant Citrobacter koseri JCM1658 TPL extracted from Escherichia coli BL21(DE3) assessed as decrease in phenol production incubated for 3 mins in presence of PLP/L-Tyr by LC-MS analysis
Citrobacter koseri [4] = assay: Inhibition of TPL in Citrobacter koseri JCM1658 assessed as decrease in phenol production incubated for 0.5 to 3 hrs by absorbance based analysis; details: dose 100-500 µM, time 0.5-3 hrs
Morganella morganii [5] = assay: Inhibition of TPL in Morganella morganii JCM1672 assessed as decrease in phenol production at 100 uM incubated for 1 hr by absorbance based analysis
Morganella morganii [6] = assay: Inhibition of TPL in Morganella morganii JCM1672 assessed as decrease in phenol production at 500 uM incubated for 0.5 to 3 hrs by absorbance based analysis; details: time 0.5-3 hrs
Citrobacter koseri [7] = assay: Inhibition of TPL in Citrobacter koseri JCM1658 assessed as decrease in phenol production at 100 to 500 uM incubated for 3 hrs by absorbance based analysis relative to control; details: dose 100-500 µM
Morganella morganii [8] = assay: Inhibition of TPL in Morganella morganii JCM1672 assessed as decrease in phenol production at 100 to 500 uM incubated for 3 hrs by absorbance based analysis relative to control; details: dose 100-500 µM
Citrobacter koseri [9] = assay: Effect on TPL expression in Citrobacter koseri JCM1658 up to 500 uM by immunoblot analysis; assay type: functional
Morganella morganii [10] = assay: Effect on TPL expression in Morganella morganii JCM1672 up to 500 uM by immunoblot analysis; assay type: functional
Citrobacter koseri [11] = assay: Inhibition of cell growth in Citrobacter koseri JCM1658 up to 500 uM incubated up to 24 hrs; assay type: functional, organism-based
Morganella morganii [12] = assay: Inhibition of cell growth in Morganella morganii JCM1672 up to 500 uM incubated up to 24 hrs; assay type: functional, organism-based
Mus musculus [13] = assay: Effect on fecal phenol level in C57BL/6J mouse administered orally measured after 7 days by LC-MS analysis; assay type: functional, organism-based; details: route po, time 7.0 day
Mus musculus [14] = assay: In vivo inhibition of TPL in C57BL/6J mouse assessed as reduction in L-Tyr-induced fecal phenol level administered orally measured after 14 days by LC-MS analysis; assay type: functional, organism-based; details: route po, time 14.0 day
Mus musculus [15] = assay: In vivo inhibition of TPL in feces of C57BL/6J mouse administered orally measured after 14 days by immunoassay; assay type: functional, organism-based; details: route po, time 14.0 day

Structure (SMILES)	Ki [1] [µM]	inhibition (Morganella morganii [2])	also measured
N[C@@H](Cc1ccc(O)cn1)C(=O)O	130	–	–
COc1cc(C(=O)O)ccc1O	–	inactive	–
COc1ccc(C(=O)O)cc1OC	–	inactive	–
O=C(O)Cc1ccc(O)c(O)c1	–	inactive	–
O=C(O)c1ccc(O)cc1	–	inactive	–
O=C(O)c1ccc(O)nc1	–	inactive	–
O=C(O)c1ccccc1	–	inactive	–
O=C(O)c1cccnc1	–	inactive	–
O=C(O)c1cncc(O)c1	–	Active	–
O=C(O[C@@H]1Cc2c(O)cc(O)cc2O[C@@H]1c1cc(O)c(O)c(O)c1)c1cc(O)c(O)c(O)c1	–	Active	inhibition (Citrobacter koseri [3]): Active
O=C(O[C@@H]1Cc2c(O)cc(O)cc2O[C@@H]1c1ccc(O)c(O)c1)c1cc(O)c(O)c(O)c1	–	Active	inhibition (Citrobacter koseri [3]): Active
Oc1cccc(O)c1	–	inactive	–
Oc1cccc(O)c1O	–	inactive	–
Oc1ccccc1O	–	inactive	–
O=C(O)c1cc(O)cc(O)c1 [3,5-DIHYDROXYBENZOIC ACID]	25.7	Active	inhibition (Citrobacter koseri [4]): Dose-dependent-effect; inhibition (Morganella morganii [5]): Active; inhibition (Morganella morganii [6]): Active; Imax (Citrobacter koseri [7]): 56.2%; Imax (Morganella morganii [8]): 29.3%; Activity (Citrobacter koseri [9]): No effect; Activity (Morganella morganii [10]): No effect; inhibition (Citrobacter koseri [11]): inactive; inhibition (Morganella morganii [12]): inactive; Activity (Mus musculus [13]): No effect; inhibition (Mus musculus [14]): Active; inhibition (Mus musculus [15]): Active; Tpl Expression Was Below The Detection Limit
O=C(O)c1cccc(O)c1 [3-HYDROXYBENZOIC ACID]	35.8	Active	–
O=C(O)c1cc(O)c(O)c(O)c1 [GALLIC ACID]	73.2	Active	inhibition (Citrobacter koseri [3]): Active
COc1ccc(C(=O)O)cc1O [ISOVANILLIC ACID]	44.7	Active	–
O=C(O)c1ccc(O)c(O)c1 [PROTOCATECHUIC ACID]	45.5	Active	–
